Here are results for three compounds from patent US20210205238A1, “STABILIZED INJECTABLE PHARMACEUTICAL COMPOSITION OF L-EPINEPHRINE” (MERCK PATENT GMBH, priority 2017, published 2021).

Data set [1] in a line: HPIC for determination of sodium metabisulfite as sulfite in stored formulations. To be noted: after 28 days at 60° C., senior formulation 1.1 mg/mL. Type of data set: physicochemical. How it is done: Epinephrine formulations were diluted 1:100 (formulations with 1.67 mg/mL Na2S2O5), 1:50 (formulations with 0.95 mg/mL and 0.48 mg/mL Na2S2O5) and 1:25 (formulation with 0.16 mg/mL Na2S2O5) in water containing 0.37% formaldehyde. Chromatographic separation was conducted on a Dionex Ion chromatograph ICS3000. 50 μl sample were applied on a HPIC column (AS4aSC, 4 mm×250 mm Thermo Scientific) using a guard column (AG4aSC, 4 mm×50 mm Thermo Scientific). Chromatographic separation was conducted in Eluent A (1.3 mM sodium hydrogen carbonate and 1.4 mM sodium carbonate in water) at 30° C. over 20 min at a flow rate of 2 mL/min. Conductivity detection with suppressor technology was used at a cell temperature of 35° C.

For data set [2] the following is noted: sulfonic acid derivative formed by reaction of epinephrine with sodium bisulfite; cited from earlier work.
The conditions of data set [3]: senior formulations 1.1 mg/mL, E:S 0.34, pH 3.9, 60° C., 28 days; vs epinephrine base.

Counter-ions that a name gives are not always drawn. Some results are limits rather than exact numbers.

As to `O=S([O-])S(=O)(=O)[O-].[Na+].[Na+]` [sodium metabisulfite], the “sodium metabisulfite starting content degraded” value in data set [1] (at E:S=1.2) is listed as over 70%; in data set [1] (at E:S=3) it was over 90%.
Take `CNCC(c1ccc(O)c(O)c1)S(=O)(=O)O` (stereo not shown) [ESA, epinephrine sulfonic acid]: the biological activity result in data set [2] is “biologically inactive”.
Turning to `CNC[C@H](O)c1ccc(O)c(O)c1` [epinephrine tartrate], in data set [3], the D-enantiomer formation result was “significantly reduced”.
